Test results taken from ChEMBL document CHEMBL1201862, “PubChem BioAssay data set” (2004).
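Where inhibition never reached the appropriate level, the endpoint shown equals the highest concentration tested. Otherwise, values were interpolated linearly from a five-concentration, 48-hour dose response in 96-well plates. The concentration for 50% growth inhibition is given as GI50.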 The source made the active and inactive calls. Cut-off read from the data, not from the text of the source: active = GI50 up to about 1.1 µM and inactive = higher.

Assays:
Test in all cases: DTP human tumour cell line panel, 48 h
NCI-H460 = system: NCI-H460
ACHN = system: ACHN
RPMI-8226 = system: RPMI-8226
SF-539 = system: SF-539
HCC 2998 = system: HCC 2998
SK-OV-3 = system: SK-OV-3
SNB-75 = system: SNB-75
OVCAR-4 = system: OVCAR-4
OVCAR-3 = system: OVCAR-3
RXF 393 = system: RXF 393
K562 = system: K562
SF-268 = system: SF-268
HCT-116 = system: HCT-116
OVCAR-5 = system: OVCAR-5
HOP-62 = system: HOP-62
LOX IMVI = system: LOX IMVI

Measured: GI50

COc1cc(NC(C)=O)c2[nH]c3c(C)cc(NC(C)=O)c(C)c3c2c1
inactive: NCI-H460 > 100 µM | ACHN > 100 µM | RPMI-8226 > 100 µM | SF-539 > 100 µM | HCC 2998 > 100 µM | SK-OV-3 > 100 µM | SNB-75 > 100 µM | OVCAR-4 > 100 µM | OVCAR-3 > 100 µM | RXF 393 > 100 µM | K562 > 100 µM | SF-268 > 100 µM | HCT-116 > 100 µM

O=C1c2ccccc2C(=O)N1Cc1ccccc1-c1c2nc(c(-c3ccccc3CN3C(=O)c4ccccc4C3=O)c3ccc([nH]3)c(-c3ccccc3CN3C(=O)c4ccccc4C3=O)c3nc(c(-c4ccccc4CN4C(=O)c5ccccc5C4=O)c4ccc1[nH]4)C=C3)C=C2
inactive: OVCAR-5 > 100 µM | NCI-H460 > 100 µM | ACHN > 100 µM | RPMI-8226 > 100 µM | SF-539 > 100 µM | SK-OV-3 > 100 µM | SNB-75 > 100 µM | OVCAR-4 > 100 µM | OVCAR-3 > 100 µM | RXF 393 > 100 µM | K562 > 100 µM | SF-268 > 100 µM | HOP-62 > 100 µM | HCT-116 > 100 µM | LOX IMVI > 100 µM

C/C(CC(=O)Nc1ccc(Cl)cc1)=N\NC(=O)C[n+]1ccccc1
inactive: OVCAR-5 > 100 µM | NCI-H460 > 100 µM | ACHN > 100 µM | RPMI-8226 > 100 µM | SF-539 > 100 µM | HCC 2998 > 100 µM | SK-OV-3 > 100 µM | SNB-75 > 100 µM | OVCAR-3 > 100 µM | RXF 393 > 100 µM | K562 > 100 µM | SF-268 > 100 µM | HOP-62 > 100 µM | HCT-116 > 100 µM | LOX IMVI > 100 µM

CCOC(=O)C1(C#N)C(c2ccccc2)CC(O)(c2ccc([N+](=O)[O-])cc2)C(C(=O)c2ccc([N+](=O)[O-])cc2)C1c1ccccc1 (stereo unspecified)
inactive: OVCAR-5 > 100 µM | NCI-H460 > 100 µM | ACHN > 100 µM | RPMI-8226 > 100 µM | HCC 2998 > 100 µM | SK-OV-3 > 100 µM | SNB-75 21 µM | OVCAR-4 > 100 µM | OVCAR-3 > 100 µM | RXF 393 15.5 µM | K562 > 100 µM | SF-268 > 100 µM | HOP-62 > 100 µM | HCT-116 > 100 µM | LOX IMVI > 100 µM

Cc1c(C)c2cc3c(=O)c(CCl)coc3c(C)c2oc1=O
inactive: OVCAR-5 > 100 µM | NCI-H460 > 100 µM | ACHN > 100 µM | RPMI-8226 75 µM | SF-539 > 100 µM | HCC 2998 > 100 µM | SK-OV-3 > 100 µM | SNB-75 76.4 µM | OVCAR-3 > 100 µM | RXF 393 57 µM | K562 > 100 µM | SF-268 > 100 µM | HOP-62 > 100 µM | HCT-116 > 100 µM | LOX IMVI > 100 µM

CC(=O)OC1CC2OC(Cc3ccccc32)O1 (stereo unspecified)
inactive: NCI-H460 > 100 µM | ACHN > 100 µM | RPMI-8226 > 100 µM | SF-539 29.9 µM | HCC 2998 > 100 µM | SK-OV-3 > 100 µM | SNB-75 65 µM | OVCAR-3 > 100 µM | RXF 393 > 100 µM | K562 > 100 µM | SF-268 > 100 µM | HOP-62 > 100 µM | HCT-116 > 100 µM | LOX IMVI > 100 µM

O=C(C=P(c1ccccc1)(c1ccccc1)c1ccccc1)CC(=S)CC(=O)C=P(c1ccccc1)(c1ccccc1)c1ccccc1
inactive: OVCAR-5 18.2 µM | NCI-H460 4.36 µM | ACHN 7.08 µM | RPMI-8226 2.24 µM | SF-539 4.09 µM | HCC 2998 3.85 µM | SK-OV-3 3.95 µM | OVCAR-4 7.5 µM | OVCAR-3 2.61 µM | RXF 393 5.61 µM | K562 2.47 µM | SF-268 5.19 µM | HOP-62 8.04 µM | HCT-116 2.86 µM | LOX IMVI 3.53 µM

O=C1NC2OC(C(O)CO)C(O)C2O1 (stereo unspecified)
inactive: OVCAR-5 > 100 µM | NCI-H460 > 100 µM | ACHN > 100 µM | HCC 2998 > 100 µM | SK-OV-3 > 100 µM | SNB-75 > 100 µM | OVCAR-4 > 100 µM | OVCAR-3 > 100 µM | K562 > 100 µM | SF-268 > 100 µM | HCT-116 > 100 µM | LOX IMVI > 100 µM

Cc1ccccc1NC(=O)C(=O)CC(=O)c1ccc([N+](=O)[O-])cc1
inactive: OVCAR-5 > 100 µM | NCI-H460 > 100 µM | ACHN > 100 µM | RPMI-8226 > 100 µM | SF-539 > 100 µM | HCC 2998 23.8 µM | SK-OV-3 > 100 µM | SNB-75 39.6 µM | OVCAR-4 > 100 µM | OVCAR-3 > 100 µM | RXF 393 > 100 µM | SF-268 > 100 µM | HOP-62 > 100 µM | HCT-116 > 100 µM | LOX IMVI > 100 µM

C[N+](C)(C)CC(=O)N/N=C(\CCC(=O)NCCc1ccccc1)CC(=O)c1ccccc1
inactive: OVCAR-5 > 100 µM | NCI-H460 > 100 µM | ACHN > 100 µM | RPMI-8226 > 100 µM | SF-539 > 100 µM | HCC 2998 > 100 µM | SK-OV-3 > 100 µM | OVCAR-4 > 100 µM | OVCAR-3 > 100 µM | K562 > 100 µM | SF-268 > 100 µM | HOP-62 > 100 µM | HCT-116 > 100 µM | LOX IMVI > 100 µM

CCOC(=O)CC1=CSC2=NCCN12
inactive: OVCAR-5 > 100 µM | NCI-H460 > 100 µM | ACHN > 100 µM | SF-539 > 100 µM | HCC 2998 > 100 µM | SK-OV-3 > 100 µM | SNB-75 > 100 µM | OVCAR-4 > 100 µM | OVCAR-3 > 100 µM | RXF 393 > 100 µM | K562 > 100 µM | SF-268 > 100 µM | HOP-62 > 100 µM | HCT-116 > 100 µM | LOX IMVI > 100 µM

COc1cc(C(=O)C/C(CCC(=O)Nc2ccc(Cl)cc2Cl)=N/NC(=O)C(N)=O)ccc1O
inactive: OVCAR-5 > 100 µM | NCI-H460 > 100 µM | ACHN > 100 µM | RPMI-8226 > 100 µM | SF-539 > 100 µM | HCC 2998 > 100 µM | SK-OV-3 > 100 µM | SNB-75 7.91 µM | OVCAR-4 > 100 µM | OVCAR-3 > 100 µM | K562 76.2 µM | SF-268 > 100 µM | HOP-62 79.6 µM | HCT-116 > 100 µM

COc1cc(CCc2cccnc2)cc(OC)c1OC
inactive: OVCAR-5 38.5 µM | NCI-H460 > 100 µM | ACHN > 100 µM | RPMI-8226 > 100 µM | SF-539 > 100 µM | SNB-75 51.1 µM | OVCAR-4 > 100 µM | OVCAR-3 > 100 µM | RXF 393 > 100 µM | K562 > 100 µM | SF-268 > 100 µM | HOP-62 > 100 µM | HCT-116 > 100 µM | LOX IMVI > 100 µM
